Molecular target: T1, Dimer of Gag-Pol polyprotein [489-587] (Human immunodeficiency virus 1, UniProt P04585)
T1 construct: 489-587
Test: Protease Inhibition Assay
Protocol: Inhibition of HIV protease was measured by assay of the cleavage of a fluorescent peptide substrate. The fluorescent product (2-aminobenzoyl-Ala-Thr-His-Gln-Val-Tyr) was separated from the fluorescent substrate by anion-exchange HPLC on a Mono-Q anion-exchange column (Pharmacia), and fluorescence was monitored at an excitation wavelength of 330 nm and an emission wavelength of 430 nm. Ki values for inhibitor binding were estimated at fixed concentrations of substrate and inhibitor from fractional activity measurements by use of the modified Michaelis-Menten equation.

O=C1N(Cc2cccc([N+](=O)[O-])c2)[C@H](Cc2ccccc2)[C@H](O)[C@@H](O)[C@@H](Cc2ccccc2)N1Cc1cccc([N+](=O)[O-])c1
Ki: 2.8 nM

NC(=O)NC1=N[C@H](Cc2ccccc2)[C@H](O)[C@@H](O)[C@@H](Cc2ccccc2)N1 [[4R-(4a,5a,6B,7B)]-[Hexahydro-5,6-dihydroxy-4,7-bis(phenylmethyl)-2H-1,3-diazepin-2-ylidene]urea]
Ki (pH 5.5, 37 °C): > 12500 nM

O=C1N(Cc2cccc(O)c2)[C@H](Cc2ccccc2)[C@H](O)[C@@H](O)[C@@H](Cc2ccccc2)N1Cc1cccc(O)c1
Ki: 0.12 nM

O=C1N(Cc2ccc(O)cc2)[C@H](Cc2ccccc2)[C@H](O)[C@@H](O)[C@@H](Cc2ccccc2)N1Cc1ccc(O)cc1
Ki: 0.12 nM

O=C1N(Cc2cccc(CO)c2)[C@H](Cc2ccccc2)[C@H](O)[C@@H](O)[C@@H](Cc2ccccc2)N1Cc1cccc(CO)c1 [(4R,5S,6S,7R)-4,7-dibenzyl-5,6-dihydroxy-1,3-bis({[3-(hydroxymethyl)phenyl]methyl})-1,3-diazepan-2-one]
Ki: 0.14 nM
